The results in this text go back to patent publication US5977298A, “Calcitonin derivatives” (Kvowa Hakko Kogyo Co., Ltd., priority 1995, dated 1999).

Bridges are numbered along the chain shown (N, C = ends). Where no end group is shown, it is not given here. [ ]: non-standard residue; d: D form. Gla = N[C@@H](CC(C(=O)O)C(=O)O)C(=O)O; Hyp = O=C(O)[C@@H]1C[C@@H](O)CN1; βAla = NCCC(=O)O

The assay has as its system Osteoclast-like multinucleated cells (osteoclasts). Briefly: Calcitonin-like biological activity: bone resorption pit formation by osteoclasts on ivory pieces. It counts as cell-based, mouse. Conditions: 48 hours. The procedure: 1-1 Preparation of Osteoclasts
Osteoclast-like multinucleated cells which were derived by coculturing mouse osteoblasts and bone marrow cells on collagen gel according to the method described in Akatsu T. et al., J. Bone Miner. Res., 7, 1297-1306 (1992) were used as osteoclasts. That is, osteoblasts derived from mouse vault of skull (5×10^5 cells) were put in a 100 mm dish (IWAKI) collagen-coated with Cellmatrix Type I-A (Nitta Gelatin Co., Ltd.) and cultured for one day in a CO2 incubator (37° C., 5% CO2) [medium: αMEM+10% FCS (both by GIBCO Co., Ltd.)]. After the medium was removed, mouse bone marrow cells (6×10^6 cells) were put on the osteoblasts and 10^-8 M calcitriol (Wako Pure Chemical Industries, Ltd.) and 10^-7 M dexamethasone (Sigma Chemical Co.) were added thereto. TRAP-positive multinucleate cells (osteoclast-like cells) which were obtained 7 days after the inoculation of osteoblasts were used as osteoclasts.
1-2 Culturing of Osteoclasts on Ivory Pieces
After removal of the medium from the dish, and rinsing with PBS(-), a mixture of collagenase and dispase (collagenase: Wako Pure Chemical Industries, Ltd., dispase: Godo Shusei Co., Ltd.) was added thereto to suspend the cells. The cell suspension was put into a tube and centrifuged at 800 rpm for 5 minutes. After removal of the supernatant by suction, the cells were suspended again in αMEM and the suspension was put on ivory pieces (diameter: 4 mm, thickness: 20 μm) in 100 μl portions. The ivory pieces were left to stand in a CO2 incubator for 2 hours to attach the osteoclasts thereto, and then taken out and gently transferred to a 48-well plate (IWAKI) to which a medium containing a test compound had been added in advance to determine the bone resorption activity 48 hours later according to the method described below. The medium containing the test compound was prepared by adding the test compound dissolved in HEPES buffer to the medium described in 1-1 to give the final concentrations shown in Tables 2 and 3.
1-3 Determination of Bone Resorption Activity by Staining of Ivory Pieces and Measurement of Bone Resorption Pit Area
The ivory pieces taken out of the medium were put into a tube containing 0.1 N aqueous ammonia and subjected to sonication treatment with a sonicator for 20-30 seconds to remove the osteoclasts. After being washed with distilled water to remove ammonia, the ivory pieces were dipped in a hematoxylin-eosin staining solution to stain resorption pits. The bone resorption pit formation rate was calculated based on microphotographs of stained ivory pieces according to the following equation by the use of an image analyzer. [formula]
The bone resorption inhibitory activity of test compounds were calculated according to the following equation. [formula]
A; Bone resorption pit formation rate obtained using no test compound
B; Bone resorption pit formation rate obtained using a test compound

As for “Compound 7: SEQ ID NO:7; cyclic peptide Compound 16 condensed to the N-terminus of the Compound 23 peptide (GNWHGTAPDGLGSLTEVLAKLAAY[Hyp]RTNTGSGT[Hyp]-NH2; lactam (positions not given here); not fully specified (bridges); also: cyclic peptide Compound 16 condensed at N-terminus)”, the “Bone resorption inhibitory activity (% inhibition)” value (compound concentration 10^-8 M) stood at 50%.
As for “Compound 8: SEQ ID NO:8; cyclic peptide Compound 16 condensed to the N-terminus of the Compound 24 peptide (GNWHGTAPDGLGSLTEVLAKLAAYPRTNT[βAla]SGTP-NH2; lactam (positions not given here); not fully specified (bridges); also: cyclic peptide Compound 16 condensed at N-terminus)”, the “Bone resorption inhibitory activity (% inhibition)” value (compound concentration 10^-6 M) was determined as 39%.
On to “Compound 14: SEQ ID NO:14; cyclic peptide Compound 16 condensed to the N-terminus of the Compound 30 peptide (GNWHGTAPDGLGSLTEVLAKLAEYPKTNTGSGTP-NH2; lactam (positions not given here); not fully specified (bridges); printed as ⌐GNWHGTAPDGLGSLTEVLAKLAEYPKTNTGSGTP┐— NH$_2$; also: cyclic peptide Compound 16 condensed at N-terminus)”, for which the “Bone resorption inhibitory activity (% inhibition)” value (compound concentration 10^-6 M) is recorded as 40%.
With “Compound 13: SEQ ID NO:13; cyclic peptide Compound 16 condensed to the N-terminus of the Compound 29 peptide (GNWHGTAPDGLGSLTEVLAKLAEYP[dR]TNTGSGTP-NH2; lactam (positions not given here); not fully specified (bridges); printed as ⌐GNWHGTAPDGLGSLTEVLAKLAEYPrTNTGSGTP┐— NH$_2$; also: cyclic peptide Compound 16 condensed at N-terminus)”, where the note is “compound concentration 10^-6 M”, the “Bone resorption inhibitory activity (% inhibition)” value is recorded as 35%.
“Compound 1: SEQ ID NO:1; cyclic peptide Compound 15 condensed to the N-terminus of the Compound 17 peptide (GNWHGTAPDWLGKLSQELHKLQTYPRTNTGSGTP-NH2; lactam N-9)”: where the note is “compound concentration 10^-7 M”, the “Bone resorption inhibitory activity (% inhibition)” value stood at 61%.
“Compound 10: SEQ ID NO:10; cyclic peptide Compound 16 condensed to the N-terminus of the Compound 26 peptide (GNWHGTAPDGLGSLT[Gla]VLAKLAEYPRTNTGSGTP-NH2; lactam (positions not given here); not fully specified (bridges); also: cyclic peptide Compound 16 condensed at N-terminus)”: the “Bone resorption inhibitory activity (% inhibition)” value (compound concentration 10^-6 M) came out at 27%.
As for “Compound 4: SEQ ID NO:4; cyclic peptide Compound 16 condensed to the N-terminus of the Compound 20 peptide (GNWHGTAPDMLGTYTQDFNKFHTFPQTAIGVGAP-NH2; lactam (positions not given here); not fully specified (bridges); printed as ⌐GNWHGTAPDMLGTYTQDFNKFHTFPQTAIGVGAP—NH$_2$; also: cyclic peptide Compound 16 condensed at N-terminus)”, under “compound concentration 10^-6 M”, the “Bone resorption inhibitory activity (% inhibition)” value was 29%.
Take “Compound 2: SEQ ID NO:2; cyclic peptide Compound 16 condensed to the N-terminus of the Compound 18 peptide (GNWHGTAPDVLGKLSQELHKLQTYPRTNTGSGTP-NH2; lactam N-9)”: where the note is “compound concentration 10^-8 M”, the “Bone resorption inhibitory activity (% inhibition)” value is on record as 36%.
On to “Compound 6: SEQ ID NO:6; cyclic peptide Compound 16 condensed to the N-terminus of the Compound 22 peptide (GNWHGTAPDGLGSLTEVLAKLAAYPRSQTGAGTP-NH2; lactam (positions not given here); not fully specified (bridges); printed as ⌐GNWHGTAPDGLGSLTEVLAKLAAYPRSQTGAGTP—NH$_2$; also: cyclic peptide Compound 16 condensed at N-terminus)”, for which the “Bone resorption inhibitory activity (% inhibition)” value (compound concentration 10^-6 M) came out at 29%.
Take “Compound 3: SEQ ID NO:3; cyclic peptide Compound 16 condensed to the N-terminus of the Compound 19 peptide (GNWHGTAPDVLAALAAALAALAALPRTNTGSGTP-NH2; lactam (positions not given here); not fully specified (bridges); printed as ⌐GNWHGTAPDVLAALAAALAALAALPRTNTGSGTP—NH$_2$)”: the “Bone resorption inhibitory activity (% inhibition)” value (compound concentration 10^-6 M) was found to be 65%.
As for “Compound 11: SEQ ID NO:11; cyclic peptide Compound 16 condensed to the N-terminus of the Compound 27 peptide (GNWHGTAPDGLGSLTEVLAKLA[Gla]YPRTNTGSGTP-NH2; lactam (positions not given here); not fully specified (bridges); also: cyclic peptide Compound 16 condensed at N-terminus)”, the “Bone resorption inhibitory activity (% inhibition)” value (compound concentration 10^-7 M) is recorded as 42%.
For the substance “H-LGKLSQELHKLQTYPRTNTGSGTP-NH2 [Compound 17, reference compound]”, the “Bone resorption inhibitory activity (% inhibition)” value (compound concentration 10^-7 M) stood at 0%.
Take “H-Val-Leu-Gly-Lys-Leu-Ser-Gln-Glu-Leu-His-Lys-Leu-Gln-Thr-Tyr-Pro-Arg-Thr-Asn-Thr-Gly-Ser-Gly-Thr-Pro-NH2 (H-VLGKLSQELHKLQTYPRTNTGSGTP-NH2) [Compound 18, linear partial calcitonin peptide, comparison for Compound 2, reference compound]”: the “Bone resorption inhibitory activity (% inhibition)” value (compound concentration 10^-8 M) was determined as 15%.
“H-Val-Leu-Ala-Ala-Leu-Ala-Ala-Ala-Leu-Ala-Ala-Leu-Ala-Ala-Leu-Pro-Arg-Thr-Asn-Thr-Gly-Ser-Gly-Thr-Pro-NH2 (H-VLAALAAALAALAALPRTNTGSGTP-NH2) [Compound 19, linear calcitonin-like peptide, comparison for Compound 3, reference compound]”: where the note is “compound concentration 10^-6 M”, the “Bone resorption inhibitory activity (% inhibition)” value is recorded as 6%.
Turning to “Compound 5: SEQ ID NO:5; cyclic peptide Compound 16 condensed to the N-terminus of the Compound 21 peptide (GNWHGTAPDGLGSLTEVLAKLAAYPRTNTGSGTP-NH2; lactam (positions not given here); not fully specified (bridges); printed as ⌐GNWHGTAPDGLGSLTEVLAKLAAYPRTNTGSGTP—NH$_2$; also: cyclic peptide Compound 16 condensed at N-terminus)”, the “Bone resorption inhibitory activity (% inhibition)” value (compound concentration 10^-6 M) amounted to 35%.
